# From patent US20010056089A1, “Novel crystal of cephalosporin compound” (FUJISAWA PHARMACEUTICAL CO., LTD., priority 1995, published 2001)
# What was measured:
# [1] = Urinary excretion after oral administration; assay type: in vivo; conditions: male, SD, rat, urine; rats fasted overnight, 20 mg/kg oral, suspended in 0.5% methylcellulose; disk plate diffusion, Bacillus subtilis ATCC 6633; read-out: Recovery in 24-hrs urine (%)
# Procedure: (C) Urinary Excretion Test Method Male SD rats (6-7 weeks old) from JCL were used. The test compound was suspended in 0.5% methylcellulose solution. The rats were fasted overnight before administration of 20 mg/kg. The urine was collected in the time slots of 0-6 and 6-24 hours after oral administration and the urinary recovery was determined by the disk plate diffusion method using Bacillus subtilis ATCC 6633 as the test organism and sodium citrate agar (0.8% sodium citrate, 0.5% polypeptone, 0.3% beef extract, and 1.0% agar) as the test medium.
# [2] = Stability test of the crystal of Example 2 (conditions not stated); assay type: physicochemical
# [3] = Stability test (1): one-month stability in an airtight container at 40° C.; assay type: physicochemical; conditions: potency by liquid chromatography
# Procedure: The water-containing crystals and isopropyl alcohol and water-containing crystals of Compound (I) or a salt thereof obtained in Examples 5, 7 and 8(1) were tested.
# The one-month stability of each test sample in an airtight container at 40° C. was evaluated.
# The potency of each test sample was determined by liquid chromatography and the percentage residue of Compound (I) or a salt thereof was calculated.
# [4] = Stability test (2): 9-day stability in an airtight container at 70° C.; assay type: physicochemical; conditions: potency by liquid chromatography
# Procedure: Four lots of the isopropyl alcohol and water-containing crystal of compound (I) as obtained in Example 8 (2) were used.
# The 9-day stability of each test sample in an airtight container at 70° C. was determined. The potency of each test sample was determined by liquid chromatography and the percentage residue was calculated.
Compound,Residue (%) [3] [%],Residue (%) [4] [%],also measured
"Nc1nc(/C(=N/O)C(=O)N[C@@H]2C(=O)N3C(C(=O)O)=C(SCc4cn[nH]c4)CS[C@H]23)cs1 [Compound (I), 7β-[2-(2-aminothiazol-4-yl)-2-(Z)-(hydroxyimino)acetamido]-3-[(pyrazol-4-yl)methylthio]-3-cephem-4-carboxylic acid]",–,–,dose excreted [1]: 50%
"Nc1nc(/C(=N/O)C(=O)N[C@@H]2C(=O)N3C(C(=O)O)=C(SCc4cn[nH]c4)CS[C@H]23)cs1 [Example 2, 7β-[2-(2-aminothiazol-4-yl)-2-(Z)-(hydroxyimino)acetamido]-3-[(pyrazol-4-yl)methylthio]-3-cephem-4-carboxylic acid]",–,–,stability in the stability test [2]: stable
"Nc1nc(/C(=N/O)C(=O)N[C@@H]2C(=O)N3C(C(=O)O)=C(SCc4cn[nH]c4)CS[C@H]23)cs1 [Example 5, 7β-[2-(2-amino-thiazol-4-yl)-2-(Z)-(hydroxyimino)acetamido]-3-[(pyrazol-4-yl)methylthio]-3-cephem-4-carboxylic acid]",98.2,–,–
"Nc1nc(/C(=N/O)C(=O)N[C@@H]2C(=O)N3C(C(=O)O)=C(SCc4cn[nH]c4)CS[C@H]23)cs1 [Example 7, 7β-[2-(2-aminothiazol-4-yl)-2-(Z)-(hydroxyimino)acetamido]-3-[(pyrazol-4-yl)methylthio]-3-cephem-4-carboxylic acid]",99.2,–,–
"Nc1nc(/C(=N/O)C(=O)N[C@@H]2C(=O)N3C(C(=O)O)=C(SCc4cn[nH]c4)CS[C@H]23)cs1 [Example 8(1), 7β-[2-(2-aminothiazol-4-yl)-2-(Z)-(hydroxyimino)acetamido]-3-[(pyrazol-4-yl)methylthio]-3-cephem-4-carboxylic acid]",98.5,–,–
Nc1nc(/C(=N/O)C(=O)NC2C(=O)N3C(C(=O)O)=C(SCc4cn[nH]c4)CSC23)cs1 (stereo not drawn) [Example 35414OP],–,98.7,–
Nc1nc(/C(=N/O)C(=O)NC2C(=O)N3C(C(=O)O)=C(SCc4cn[nH]c4)CSC23)cs1 (stereo not drawn) [Example 35434OP],–,98.0,–
Nc1nc(/C(=N/O)C(=O)NC2C(=O)N3C(C(=O)O)=C(SCc4cn[nH]c4)CSC23)cs1 (stereo not drawn) [Example 35534OP],–,99.2,–
Nc1nc(/C(=N/O)C(=O)NC2C(=O)N3C(C(=O)O)=C(SCc4cn[nH]c4)CSC23)cs1 (stereo not drawn) [Example 37914XP],–,98.0,–
